Here are results for five compounds from US20060116403A1, “Therapeutic target and uses thereof” (priority 2002, published 2006).

Data set [1] concerns human vascular smooth muscle cells (internal mammary artery). The experiment in a line: 35S-sulfate incorporation into total secreted proteoglycans (CPC precipitation). Format: cell-based. The conditions noted are these: for inhibition of PDGF-stimulated component of proteoglycan production: PDGF 50 ng/ml, imatinib 1 μM, genistein 100 μM. Here is the method:
The Human Ethics Committee of the Alfred Hospital and Baker Heart Research Institute approved the acquisition of tissue.
Cells were metabolically labeled with [^35S]-sulfate ([…]) for the final 24 h.
(§1) The culture media were collected and each plate rinsed with Dulbecco's PBS (0.25 ml). Aliquots (50 μl) of the media sample were spotted in duplicate on 30×15 mm rectangles of Whatman® 3M chromatography paper (Aldrich, Milwaukee, U.S.A.). The paper was washed five times in a solution containing cetylpyridinium chloride (CPC, 1% w/v) and NaCl (50 mM). Following air drying at room temperature, the paper from each sample was placed in liquid scintillation fluid (Packard, Groningen, The Netherlands) and radioactivity counted in a Beckman Coulter liquid scintillation analyzer (Fullerton, U.S.A). Counts from cells labeled with [^35S]-sulfate and Tran^35SLabel represented total sulfated GAGs and total core protein respectively.

Data set [2] relates to human vascular smooth muscle cells. The experiment in a line: Size of proteoglycans and cleaved GAG chains by SDS-PAGE. It is filed as cell-based. As to conditions: for effect on elongation of GAG chains stimulated by PDGF: PDGF treated cells; for effect on size of GAG chains released from proteoglycans, basal: basal (untreated cells); for effect on proteoglycan size (SDS-PAGE): basal and PDGF treated cells, imatinib 1 μM, genistein/daidzein 100 μM. The protocol:
DEAE-Sephacel columns were prepared as previously described 19 and were washed with low salt buffer containing 8 M urea, 0.25 M NaCl, 0.02 M disodium EDTA and 0.5% Triton X-100. The media of 3 identical treatments was pooled and applied to the column. The columns were washed with low salt buffer to remove non-proteoglycan associated radioactivity. Fractions were collected with high salt buffer containing 8 M urea, 3 M NaCl, 0.02 M disodium EDTA and 0.5% Triton X-100.
Samples were prepared for SDS-PAGE by set counts so that the amount of radioactivity applied to the gel was the same for each treatment.
Proteoglycans eluted from DEAE columns and precipitated once with ethanol/potassium acetate solution were treated with sodium borohydride (1 M) in NaOH (50 mM) for 4 h at 45° C. to release the GAG chains. The free GAG chains were precipitated with the ethanol/potassium acetate solution and analyzed for size by SDS-PAGE.
For the estimation of apparent relative masses (MrS) ^14C high molecular weight standards (GIBCO BRL, Grand Island, U.S.A) were run in separate lanes.
The labeled proteoglycans, cleaved chains, xyloside-initiated GAGs and standard proteins were exposed (3 days) to a Fujifilm imaging plate (Fuji Photo Film Co., Japan) and the imaging plate scanned by the Bio-imaging analyzer BAS-1000 MacBas (Fuji Photo Film Co., Japan).

The target in another data set is cAbl kinase (Homo sapiens, UniProt P00519). Nature of the data set: Direct assay of cAbl kinase activity. Format: biochemical. The protocol: The direct cAbl kinase inhibitory activity of several compounds was evaluated.
Data set [3] has as its system vascular smooth muscle cells. The experiment in a line: 35S-sulphate incorporation into proteoglycans, cAbl siRNA transfection compared with imatinib. Format: cell-based, human. As to conditions: culture media. The text has this:
An independent method is available to examine this question by using molecular biology techniques to block the expression of the mRNA for cAbl and thus reduce the actual level of cAbl mRNA, protein and enzyme activity in the cell. A new technique of post-transcriptional gene silencing known as small inhibitory RNA (or siRNA) has recently been developed in which cells are transfected with an siRNA which leads to the breakdown and loss of the target mRNA in this case cAbl RNA. This is a highly specific technique which complements the pharmacological approach. […] Target sequences for siRNA have been identified from the scanning of the coding region of the human c-Abl gene. Four of these potential sites were selected and compared to a genome database to identify any sequence homology to other genes. Following identification of target sequences, sense and anti-sense siRNA oligonucleotide templates are constructed consisting of 21 nucleotides encoding the siRNA and 8 nucleotides complementary to a promoter primer. […] Both sense and anti-sense siRNA oligonucleotide templates were hybridised to a promoter primer. Double stranded siRNA transcription templates was created by extending the hybridised oligonucleotides using the Klenow fragment of DNA polymerase and RNA polymerase used to transcribe the sense and anti-sense siRNA templates which were then hybridised to dsRNA. […]

Data set [4] has as its system human vascular smooth muscle cells. The experiment in a line: Xyloside-initiated GAG chain synthesis and size. As to conditions: xyloside 0.5 mM; for effect on increase in size of GAG chains on xyloside, PDGF: PDGF treated cells. It is filed as cell-based. The protocol: To study glycosaminoglycan (GAG) synthesis, cells were treated with exogenous xyloside which acts as an artificial and alternative substrate for the enzymes which normally catalyze the initiation of GAG chains on the protein core Nigro J et al (2002)) and Moses, J., Oldberg, A. & Fransson, L. A. Initiation of galactosaminoglycan biosynthesis. Separate galactosylation and dephosphorylation pathways for phosphoxylosylated decorin protein and exogenous xyloside. Eur J Biochem 260, 879-84 (1999)) generating free xyloside-initiated GAG chains. β-D-Xylopyranoside (xyloside) (0.5 mM) was prepared in DMEM with FBS (0.1%) and DMSO (0.1%). […] Cells were metabolically labeled with [^35S]-sulfate (50 μCi/well) for 24 hours.
SDS-PAGE gels were prepared following the procedure of Laemelli (Laemmli, U.K. Cleavage of structural proteins during the assembly of the head of bacteriophage T4. Nature 227, 680-5 (1970)) on 4-13% linear gradient separating gels for intact proteoglycans and 4-20% separating gels for cleaved chains and xyloside-initiated GAGs, with a 3.5% stacking gel. For the estimation of apparent relative masses (MrS) ^14C high molecular weight standards (GIBCO BRL, Grand Island, U.S.A) were run in separate lanes.
Cell cultures supplemented with xyloside synthesize the normal family of proteoglycans but also free GAG chains which are synthesized on the xyloside acting as a “false acceptor” for GAG initiation. […] The analysis of the production of the xyloside-initiated GAG chains therefore represents an independent assay of the activity of the GAG elongation process which normally determine the length of GAGs on proteoglycans. […]. GAG chains produced on xyloside are considerably smaller than free GAG chains synthesized on and released from proteoglycans (compare FIG. 2 right panel with FIG. 3 lower panel). The band at the bottom of the SDS-PAGE is the GAG chains initiated on xyloside. Genistein and daidzein have no effect on the size of the GAGs either under basal or PDGF stimulated conditions. […].

Data set [5] has the same test system. Nature of the data set: Proteoglycan core protein synthesis (35S-methionine/cysteine, CPC precipitation). Format: cell-based. The protocol: as §1
Effects on core protein biosynthesis can be evaluated by metabolically labeling the cells with labeled amino acids (^35S-methionine/cysteine) and using an isolation technique “CPC precipitation” which is specific for isolating proteoglycans. Thus, cells were treated identically to the above experiments but labeled with ^35S-methionine/cysteine. […]. Core protein biosynthesis was stimulated by PDGF (FIG. 5; […].

For data set [6], the system named is human LDL. Nature of the data set: LDL affinity chromatography of radiolabeled proteoglycans. It is filed as cell-based. As to conditions: PDGF 50 ng/ml; imatinib 1 μM, genistein 100 μM. Here is the method:
Human blood samples were obtained from healthy subjects. LDL (d=1.019−1.063 g/ml) was purified from blood by sequential density gradient ultracentrifugation as described by Heinecke, J. W., Baker, L., Rosen, H. & Chait, A. Superoxide-mediated modification of low density lipoprotein by arterial smooth muscle cells. J Clin Invest 77, 757-61 (1986). The interaction of total pooled intact proteoglycan preparations with native human LDL was assessed using LDL affinity chromatography, providing a measure of binding capacity. […] Sepharose was prepared in the presence of excess heparin to protect the GAG binding sites. The columns were washed with HEPES buffer above and then with 1M NaCl to remove heparin. Each sample (80,000 cpm) was applied to a separate column. The columns were washed extensively with low salt buffer then eluted (5×0.5 ml) with 1M NaCl to elute bound proteoglycans. Finally the columns were stripped with high salt, high urea buffer. The aggregate radioactivity retained by the LDL column after extensive washing and eluted with 1M NaCl was determined as the binding capacity for the column.
We observed a 36% increase in the binding capacity of proteoglycans in PDGF treated cells compared to untreated cells (FIG. 5).

The next data set concerns K562 cells. Nature of the data set: Inhibition of K562 cell proliferation. Format: cell-based. The text has this: K562 cells are Philadelphia chromosome tumour cells in which constitutively active cAbl (but possibly other pathways) drive the cell proliferation. […] These cells provide an assay to discriminate inhibition of tyrosine kinases in a whole cell assay.
For data set [7], the system named is vascular smooth muscle cells. As to conditions: cited from earlier work.
In data set [8] the test system is saphenous vein vascular smooth muscle cells. The conditions noted are these: saphenous vein VSMC.
Experimental: Cultures of vascular smooth muscle cells from human saphenous veins samples obtained (with Ethics approval) from Cardiac Theatres at the Alfred Hospital were prepared.
The test system of data set [9] is human LDL. Nature of the data set: Gel Mobility Shift Assay of core protein labelled proteoglycans binding to human LDL. As to conditions: basal.
Experimental: A new approach to these studies is now used in which the proteoglycan core proteins are metabolically radio-labelled and used to study the binding of human LDL. Cells are incubated with Translabel® (ICN Biochemicals) (^35S-methioinine and cysteine amino acids) and the amino acids are incorporated into the core proteins.
Core protein labelled proteoglycans were isolated by DEAE sepharose ion exchange chromatography and then the binding to human LDL was studied in a Gel Mobility Shift Assay in which a set amount of radiolabeled proteoglycan is incubated with various amounts of LDL and then the bound and free proteoglycans are separated on a flat bed agarose gel.
The mark [10] stands for this setting: Homo sapiens, 24 h, read-out: inhibition of basal proteoglycan production.

Like-named read-outs stand apart in the source and are kept apart here.

cAbl kinase, sequence (P00519 whole entry): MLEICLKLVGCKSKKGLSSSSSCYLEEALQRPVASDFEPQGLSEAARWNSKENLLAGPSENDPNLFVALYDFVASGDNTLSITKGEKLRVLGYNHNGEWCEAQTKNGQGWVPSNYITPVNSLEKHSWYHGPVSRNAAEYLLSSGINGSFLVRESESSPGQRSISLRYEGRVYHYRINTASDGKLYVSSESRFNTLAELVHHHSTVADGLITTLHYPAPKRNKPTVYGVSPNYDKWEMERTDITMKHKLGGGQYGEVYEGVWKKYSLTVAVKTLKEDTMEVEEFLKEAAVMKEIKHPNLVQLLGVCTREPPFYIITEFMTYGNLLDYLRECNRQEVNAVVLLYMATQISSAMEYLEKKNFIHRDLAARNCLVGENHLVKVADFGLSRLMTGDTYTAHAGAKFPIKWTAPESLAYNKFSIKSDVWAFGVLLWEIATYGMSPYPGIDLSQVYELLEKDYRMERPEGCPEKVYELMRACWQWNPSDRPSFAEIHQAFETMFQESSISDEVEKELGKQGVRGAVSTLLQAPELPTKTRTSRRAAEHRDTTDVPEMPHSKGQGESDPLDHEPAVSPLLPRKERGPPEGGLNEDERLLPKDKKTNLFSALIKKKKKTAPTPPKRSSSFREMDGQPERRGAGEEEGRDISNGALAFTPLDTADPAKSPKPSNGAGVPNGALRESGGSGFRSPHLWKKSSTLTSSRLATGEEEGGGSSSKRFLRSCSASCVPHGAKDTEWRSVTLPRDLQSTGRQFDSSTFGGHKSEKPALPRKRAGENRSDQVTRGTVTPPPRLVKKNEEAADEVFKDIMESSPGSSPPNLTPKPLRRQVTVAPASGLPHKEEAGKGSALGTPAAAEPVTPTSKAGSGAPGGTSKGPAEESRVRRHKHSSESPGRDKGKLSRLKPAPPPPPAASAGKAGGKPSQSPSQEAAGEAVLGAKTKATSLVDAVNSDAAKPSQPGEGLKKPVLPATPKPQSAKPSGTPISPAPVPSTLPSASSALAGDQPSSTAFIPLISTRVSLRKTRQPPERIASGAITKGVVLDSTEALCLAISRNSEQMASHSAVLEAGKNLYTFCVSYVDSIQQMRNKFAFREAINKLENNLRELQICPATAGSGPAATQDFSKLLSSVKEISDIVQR

For the compound `CO[C@H]1[C@@H](OC)C[C@H](C)[C@@H](OC)C2=CC(=O)C=C(NC(=O)/C(C)=C/C=C\[C@H](OC)[C@@H](OC(N)=O)/C(C)=C/[C@@H]1C)C2=O` [herbimycin], the “effect on radiosulfate incorporation into proteoglycans” value in [1] (herbimycin) is “does not inhibit”. In [2] (herbimycin), the “effect on size of GAGs on proteoglycan (SDS-PAGE)” value is recorded as “does not reduce”. In addition, the “inhibition of cAbl kinase activity” value against cAbl kinase is “little activity”; on cAbl kinase (listed as Herbimycin), “no inhibitory activity”.

In the case of “siRNA (MB 61): siRNA directed to cAbl; anti-sense template 5′-AAGAAAAACTTCATCCACAGA-3′, sense template 5′-AATCTGTGGATGAAGTTTTTC-3′ (antisense AAGAAAAACTTCATCCACAGA; sense AATCTGTGGATGAAGTTTTTC; chemistry not given here; the letters are possibly those of the target site)”, in data set [3] (PDGF stimulated), the “reduction in 35S-sulphate incorporation, PDGF cells” value was determined as 50%. Also, the “inhibition of radiosulphate incorporation, control cells” value in data set [3] (control cells, 24 h) is 30-40%.

A word on the inhibition: it is the change of the read-out against control, counted positive when it falls. As for `O=c1c(-c2ccc(O)cc2)coc2cc(O)cc(O)c12` [genistein, 4′,5,7-trihydroxyisoflavone], in data set [1] (setting [10]), the inhibition at 100 µM came to 64%. Besides, the “inhibition of PDGF-stimulated component of proteoglycan production” value in data set [1] was “less inhibitory than imatinib”. Moreover, the “concentration of maximal effect on proteoglycan production” value in [1] (dose response curves) came to 100 µM. Moreover, in [2], the “effect on elongation of GAG chains stimulated by PDGF” value is reported as “no effect”; the “effect on size of GAG chains released from proteoglycans, basal” value is “no effect”; the “effect on proteoglycan size (SDS-PAGE)” value was “no effect”. Further, in [4], the “effect on combined production of proteoglycans and xyloside-initiated GAG chains” value (from here on “effect on combined production”) is on record as “essentially identical”; the “effect on increase in size of GAG chains on xyloside, PDGF” value (“effect on increase in size of GAG chains” below) is on record as “no effect”; the “effect on size of GAG chains on xyloside, basal” value (“effect … on xyloside, basal” below) is “no effect”. Besides, in data set [5], the “effect on PDGF-stimulated core protein biosynthesis” value was “attenuated” and the “effect on basal proteoglycan core protein biosynthesis” value is “reduced”. The “effect on increased LDL binding of proteoglycans from PDGF treated cells” value in the data set with human LDL [6] is listed as “does not prevent”. Further, at cAbl kinase, the “inhibition of cAbl kinase activity” value is listed as “little activity” and the “potency against cAbl relative to imatinib (times less potent)” value was 160 times. For the same compound, the “inhibition of K562 cell proliferation” value in the data set with K562 cells is reported as “little or no inhibitory activity”. Besides, the “effect on total proteoglycan production” value in data set [7] (Primate VSMC in culture) is “inhibited”. Moreover, the “effect on basal expression of versican mRNA and core protein” value in [7] (basal) was “almost completely abolishes”. For the same compound, the “effect on GAG length” value in [7] was “no effect”.

Turning to `Cc1ccc(NC(=O)c2ccc(CN3CCN(C)CC3)cc2)cc1Nc1nccc(-c2cccnc2)n1` [imatinib, 4-[(4-methyl-1-piperazinyl)methyl]-N-[4-methyl-3-[[4-(3-pyridinyl)-2-pyrimidinyl]amino-phenyl]benzamide methanesulfonate], the inhibition at 1 µM in data set [1] (setting [10]) amounted to 56%. For the same compound, the “inhibition of PDGF-stimulated component of proteoglycan production” value in data set [1] was “totally blocked”. Further, in data set [4], the “effect on combined production” value was “essentially identical”; the “effect on increase in size of GAG chains” value was “completely prevented”; the “effect … on xyloside, basal” value is recorded as “slightly reduced”. Moreover, in data set [5], the “effect on PDGF-stimulated core protein biosynthesis” value is “attenuated” and the “effect on basal proteoglycan core protein biosynthesis” value was “very small but not statistically significant inhibitory effect”. Also, the “effect on increased LDL binding of proteoglycans from PDGF treated cells” value with human LDL [6] is “completely abolished”. Also, the “effect on GAG length (SDS-PAGE mobility)” value in [8] is given as “shortens”. Further, in the data set on human LDL [9], the “decrease in LDL binding affinity” value is given as “three fold”.

Turning to `O=c1c(-c2ccc(O)cc2)coc2cc(O)ccc12` [daidzein, 4′,7-dihydroxyisoflavone], in data set [1] (basal, daidzein 100 μM), the “inhibition of basal proteoglycan production” value is recorded as “little inhibitory activity”. In data set [2], the “effect on elongation of GAG chains stimulated by PDGF” value was “no effect”; the “effect on size of GAG chains released from proteoglycans, basal” value is on record as “no effect”; the “effect on proteoglycan size (SDS-PAGE)” value is on record as “no effect”. Also, in data set [4], the “effect on combined production” value is listed as “essentially identical”; the “effect on increase in size of GAG chains” value is recorded as “no effect”; the “effect … on xyloside, basal” value is on record as “no effect”. For the same compound, in [5], the “effect on PDGF-stimulated core protein biosynthesis” value is on record as “attenuated” and the “effect on basal proteoglycan core protein biosynthesis” value is reported as “considerably less active than genistein”. On cAbl kinase, the “inhibition of cAbl kinase activity” value was “little activity”.
